Test results reported in US20170008921A1, “C-3 NOVEL TRITERPENONE WITH C-28 REVERSE AMIDE DERIVATIVES AS HIV INHIBITORS” (HETERO RESEARCH FOUNDATION, priority 2015, published 2017).

Experiments:
[1] = Single dose oral pharmacokinetic study; type: in vivo; conditions: mouse, Mice oral PK @30 mg/kg, plasma, vehicle 10% Solutol+20% PEG; for AUC(0-t): read-out: AUC0-t; for Cmax: read-out: Cmax
Experimental: The test item was administered through oral route to animals (rat/mice) at 30 mg/kg dose in a suitable vehicle (10% Solutol+20% PEG) at 10 ml/kg dose volume. Blood samples (˜50 μL at each time point) were collected from retro-orbital plexus using K3 EDTA as anticoagulant in eppendorf tubes at defined time intervals 30 minutes, 1 hour, 2 hour, 4 hour, 8 hour, 24 hour & 48 hour under light ether anaesthesia. The samples were centrifuged at 3500×g to separate plasma and stored at −80° C. until analysis. Plasma 25 μl for Mice were processed as per described in sample preparation.
Standard solutions of the test compound 1 mg/mL solutions were prepared in DMSO and further dilutions were made in methanol. […] To the test compound plasma extraction was carried out using Acetonitrile precipitation. After reconstitution with solvent (50% Acetonitrile in Buffer) samples were analyzed by LCMSMS to get the concentrations to calculate PK Parameters.

[2] = Cyto-toxicity (MTT assay); type: cell-based

CC(C)C1=C2[C@H]3CC[C@@H]4[C@@]5(C)CC[C@H](OC(=O)[C@H]6C[C@@H](C(=O)O)C6(C)C)C(C)(C)[C@@H]5CC[C@@]4(C)[C@]3(C)CC[C@@]2(NC(=O)C(C)(C)NC(=O)c2ccoc2)CC1=O [Example 24, (1R,3S)-3-((((3aR,5aR,5bR,7aR,9S,11aR,11bR,13aS)-3a-(2-(furan-3-carboxamido)-2-methylpropanamido)-1-isopropyl-5a,5b,8,8,11a-pentamethyl-2-oxo-3,3a,4,5,5a,5b,6,7,7a,8,9,10,11,11a,11b,12,13,13a-octadecahydro-2H-cyclopenta[a]chrysen-9-yl)oxy)carbonyl)-2,2-dimethylcyclobutane-1-carboxylic acid]
AUC(0-t) [1]: 428 µg·h/mL | Cmax [1]: 29600 ng/mL | viability at 4 days, 0.01 µM [2]: 69% | viability at 4 days, 0.1 µM [2]: 21% | viability at 4 days, 1 µM [2]: 6%

CC(C)C1=C2[C@H]3CC[C@@H]4[C@@]5(C)CC[C@H](OC(=O)[C@H]6C[C@@H](C(=O)O)C6(C)C)C(C)(C)[C@@H]5CC[C@@]4(C)[C@]3(C)CC[C@@]2(NC(=O)C(C)(C)NC(=O)c2ccc(C(F)(F)F)cc2)CC1=O [Example 25, (1R,3S)-3-((((3aR,5aR,5bR,7aR,9S,11aR,11bR,13aS)-1-isopropyl-5a,5b,8,8,11a-pentamethyl-3a-(2-methyl-2-(4-(trifluoromethyl)benzamido)propan amido)-2-oxo-3,3a,4,5,5a,5b,6,7,7a,8,9,10,11,11a,11b,12,13,13a-octadecahydro-2H-cyclopenta[a]chrysen-9-yl)oxy)carbonyl)-2,2-dimethylcyclobutane-1-carboxylic acid]
AUC(0-t) [1]: 336 µg·h/mL | Cmax [1]: 24000 ng/mL | viability at 4 days, 0.01 µM [2]: 31% | viability at 4 days, 0.1 µM [2]: 6% | viability at 4 days, 1 µM [2]: 2%

Cc1cnc(C(=O)NC(C)(C)C(=O)N[C@@]23CC[C@]4(C)[C@H](CC[C@@H]5[C@@]6(C)CC[C@H](OC(=O)[C@H]7C[C@@H](C(=O)O)C7(C)C)C(C)(C)[C@@H]6CC[C@]54C)C2=C(C(C)C)C(=O)C3)cn1 [Example 7, (1R,3S)-3-((((3aR,5aR,5bR,7aR,9S,11aR,11bR,13aS)-1-isopropyl-5a,5b,8,8,11a-pentamethyl-3a-(2-methyl-2-(5-methylpyrazine-2-carboxamido)propanamido)-2-oxo-3,3a,4,5,5a,5b,6,7,7a,8,9,10,11,11a,11b,12,13,13a-octadecahydro-2H-cyclopenta[a]chrysen-9-yl)oxy)carbonyl)-2,2-dimethylcyclobutane-1-carboxylic acid]
AUC(0-t) [1]: 517 µg·h/mL | Cmax [1]: 41900 ng/mL | viability at 4 days, 0.01 µM [2]: 28% | viability at 4 days, 0.1 µM [2]: 9% | viability at 4 days, 1 µM [2]: 0%

CC(C)C1=C2[C@H]3CC[C@@H]4[C@@]5(C)CC[C@H](OC(=O)[C@H]6C[C@@H](C(=O)O)C6(C)C)C(C)(C)[C@@H]5CC[C@@]4(C)[C@]3(C)CC[C@@]2(NC(=O)C2(NC(=O)c3ccc(Cl)cc3)CCCC2)CC1=O [Example 46, (1R,3S)-3-((((3aR,5aR,5bR,7aR,9S,11aR,11bR,13aS)-3a-(1-(4-chlorobenzamido)cyclopentane-1-carboxamido)-1-isopropyl-5a,5b,8,8,11a-pentamethyl-2-oxo-3,3a,4,5,5a,5b,6,7,7a,8,9,10,11,11a,11b,12,13,13a-octadecahydro-2H-cyclopenta[a]chrysen-9-yl)oxy)carbonyl)-2,2-dimethylcyclobutane-1-carboxylic acid]
AUC(0-t) [1]: 836 µg·h/mL | Cmax [1]: 29500 ng/mL | viability at 4 days, 0.01 µM [2]: 52% | viability at 4 days, 0.1 µM [2]: 12% | viability at 4 days, 1 µM [2]: 4%

CC(C)C1=C2[C@H]3CC[C@@H]4[C@@]5(C)CC[C@H](OC(=O)[C@H]6C[C@@H](C(=O)O)C6(C)C)C(C)(C)[C@@H]5CC[C@@]4(C)[C@]3(C)CC[C@@]2(NC(=O)C(C)(C)NC(=O)c2ccc3[nH]cnc3c2)CC1=O [Example 12, (1R,3S)-3-((((3aR,5aR,5bR,7aR,9S,11aR,11bR,13aS)-3a-(2-(1H-benzo[d]imidazole-5-carboxamido)-2-methylpropanamido)-1-isopropyl-5a,5b,8,8,11a-pentamethyl-2-oxo-3,3a,4,5,5a,5b,6,7,7a,8,9,10,11,11a,11b,12,13,13a-octadecahydro-2H-cyclopenta[a]chrysen-9-yl)oxy)carbonyl)-2,2-dimethylcyclobutane-1-carboxylic acid]
AUC(0-t) [1]: 61.3 µg·h/mL | Cmax [1]: 8540 ng/mL | viability at 4 days, 0.01 µM [2]: 42% | viability at 4 days, 0.1 µM [2]: 7% | viability at 4 days, 1 µM [2]: 3%

Cc1cn(-c2ccc(C(=O)NC(C)(C)C(=O)N[C@@]34CC[C@]5(C)[C@H](CC[C@@H]6[C@@]7(C)CC[C@H](OC(=O)[C@H]8C[C@@H](C(=O)O)C8(C)C)C(C)(C)[C@@H]7CC[C@]65C)C3=C(C(C)C)C(=O)C4)cc2)cn1 [Example 20, (1R,3S)-3-((((3aR,5aR,5bR,7aR,9S,11aR,11bR,13aS)-1-isopropyl-5a,5b,8,8,11a-pentamethyl-3a-(2-methyl-2-(4-(4-methyl-1H-imidazol-1-yl)benz amido)propanamido)-2-oxo-3,3a,4,5,5a,5b,6,7,7a,8,9,10,11,11a,11b,12,13,13a-octadeca hydro-2H-cyclopenta[a]chrysen-9-yl)oxy)carbonyl)-2,2-dimethylcyclobutane-1-carboxylic acid]
AUC(0-t) [1]: 236 µg·h/mL | Cmax [1]: 19000 ng/mL | viability at 4 days, 0.001 µM [2]: 91% | viability at 4 days, 0.003 µM [2]: 85% | viability at 4 days, 0.01 µM [2]: 40%

Cc1ccc(C(=O)NC2(C(=O)N[C@@]34CC[C@]5(C)[C@H](CC[C@@H]6[C@@]7(C)CC[C@H](OC(=O)[C@H]8C[C@@H](C(=O)O)C8(C)C)C(C)(C)[C@@H]7CC[C@]65C)C3=C(C(C)C)C(=O)C4)CCCC2)cn1 [Example 47, (1R,3S)-3-((((3aR,5aR,5bR,7aR,9S,11aR,11bR,13aS)-1-isopropyl-5a,5b,8,8,11a-pentamethyl-3a-(1-(6-methylnicotinamido)cyclopentane-1-carboxamido)-2-oxo-3,3a,4,5,5a,5b,6,7,7a,8,9,10,11,11a,11b,12,13,13a-octadecahydro-2H-cyclopenta[a]chrysen-9-yl)oxy)carbonyl)-2,2-dimethylcyclobutane-1-carboxylic acid]
AUC(0-t) [1]: 538 µg·h/mL | Cmax [1]: 23600 ng/mL | viability at 4 days, 0.01 µM [2]: 75% | viability at 4 days, 0.1 µM [2]: 14% | viability at 4 days, 1 µM [2]: 4%

Cc1noc(C)c1C(=O)NC(C)(C)C(=O)N[C@@]12CC[C@]3(C)[C@H](CC[C@@H]4[C@@]5(C)CC[C@H](OC(=O)[C@H]6C[C@@H](C(=O)O)C6(C)C)C(C)(C)[C@@H]5CC[C@]43C)C1=C(C(C)C)C(=O)C2 [Example 19, (1R,3S)-3-((((3aR,5aR,5bR,7aR,9S,11aR,11bR,13aS)-3a-(2-(3,5-dimethylisoxazole-4-carboxamido)-2-methylpropanamido)-1-isopropyl-5a,5b,8,8,11a-pentamethyl-2-oxo-3,3a,4,5,5a,5b,6,7,7a,8,9,10,11,11a,11b,12,13,13a-octadecahydro-2H-cyclopenta[a]chrysen-9-yl)oxy)carbonyl)-2,2-dimethylcyclobutane-1-carboxylic acid]
AUC(0-t) [1]: 93 µg·h/mL | Cmax [1]: 13900 ng/mL | viability at 4 days, 0.001 µM [2]: 79% | viability at 4 days, 0.003 µM [2]: 65% | viability at 4 days, 0.01 µM [2]: 40%

Cc1ccc(C(=O)NC2(C(=O)N[C@@]34CC[C@]5(C)[C@H](CC[C@@H]6[C@@]7(C)CC[C@H](OC(=O)[C@H]8C[C@@H](C(=O)O)C8(C)C)C(C)(C)[C@@H]7CC[C@]65C)C3=C(C(C)C)C(=O)C4)CC2)cc1 [Example 40, (1R,3S)-3-((((3aR,5aR,5bR,7aR,9S,11aR,11bR,13aS)-1-isopropyl-5a,5b,8,8,11a-pentamethyl-3a-(1-(4-methylbenzamido)cyclopropane-1-carboxamido)-2-oxo-3,3a,4,5,5a,5b,6,7,7a,8,9,10,11,11a,11b,12,13,13a-octadecahydro-2H-cyclopenta[a]chrysen-9-yl)oxy)carbonyl)-2,2-dimethylcyclobutane-1-carboxylic acid]
AUC(0-t) [1]: 343 µg·h/mL | Cmax [1]: 20300 ng/mL | viability at 4 days, 0.01 µM [2]: 26% | viability at 4 days, 0.1 µM [2]: 2% | viability at 4 days, 1 µM [2]: 1%

CC(C)C1=C2[C@H]3CC[C@@H]4[C@@]5(C)CC[C@H](OC(=O)[C@H]6C[C@@H](C(=O)O)C6(C)C)C(C)(C)[C@@H]5CC[C@@]4(C)[C@]3(C)CC[C@@]2(NC(=O)C(C)(C)NC(=O)c2ccc(F)cc2)CC1=O [Example 22, (1R,3S)-3-((((3aR,5aR,5bR,7aR,9S,11aR,11bR,13aS)-3a-(2-(4-fluorobenzamido)-2-methylpropanamido)-1-isopropyl-5a,5b,8,8,11a-pentamethyl-2-oxo-3,3a, 4,5,5a,5b,6,7,7a,8,9,10,11,11a,11b,12,13,13a-octadecahydro-2H-cyclopenta[a]chrysen-9-yl)oxy)carbonyl)-2,2-dimethylcyclobutane-1-carboxylic acid]
AUC(0-t) [1]: 490 µg·h/mL | Cmax [1]: 23600 ng/mL | viability at 4 days, 0.01 µM [2]: 21% | viability at 4 days, 0.1 µM [2]: 3% | viability at 4 days, 1 µM [2]: 3%
